Laboratory results taken from ChEMBL document CHEMBL1201862, “PubChem BioAssay data set” (2004).
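Compound exposure: 48 hours, 5 concentrations, 96-well plates. At the GI50, growth is halved.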 Activity calls are given as the source filed them. Cut-off read from the data, not from the text of the source: active = GI50 up to about 1.1 µM and inactive = higher.

Key:
Experiment in all cases: growth of human tumour cells (NCI), 48 h
SK-OV-3 = system: SK-OV-3
SK-MEL-28 = system: SK-MEL-28
NCI-H522 = system: NCI-H522
HCC 2998 = system: HCC 2998
DLD-1 = system: DLD-1
DMS-273 = system: DMS-273
IGROV-1 = system: IGROV-1
NCI-H226 = system: NCI-H226
SNB-78 = system: SNB-78
U-251 = system: U-251
LOX IMVI = system: LOX IMVI
MOLT-4 = system: MOLT-4
SF-268 = system: SF-268
SW-620 = system: SW-620
OVCAR-5 = system: OVCAR-5
TK-10 = system: TK-10
786-0 = system: 786-0
CCRF-CEM = system: CCRF-CEM

Row | SMILES | GI50 (SK-OV-3) | GI50 (SK-MEL-28) | GI50 (NCI-H522) | GI50 (HCC 2998) | GI50 (DLD-1) | GI50 (DMS-273) | GI50 (IGROV-1) | GI50 (NCI-H226) | GI50 (SNB-78) | GI50 (U-251) | GI50 (LOX IMVI) | GI50 (MOLT-4) | GI50 (SF-268) | GI50 (SW-620) | GI50 (OVCAR-5) | GI50 (TK-10) | GI50 (786-0) | GI50 (CCRF-CEM)
1 | N=C(NC(=N)Nc1ccc(S(=O)(=O)Nc2cnc3ccccc3n2)cc1)Nc1ccc(Br)cc1 | > 100 µM (inactive) | > 100 µM (inactive) | > 100 µM (inactive) | > 100 µM (inactive) | > 100 µM (inactive) | > 100 µM (inactive) | > 100 µM (inactive) | > 100 µM (inactive) | > 100 µM (inactive) | > 100 µM (inactive) | > 100 µM (inactive) | > 100 µM (inactive) | > 100 µM (inactive) | > 100 µM (inactive) | > 100 µM (inactive) | > 100 µM (inactive) | > 100 µM (inactive) | > 100 µM (inactive)
2 | O=C(CCC(=O)Nc1ccc(Cl)c(Cl)c1)CC(=O)c1ccc2ccccc2c1 | – | > 100 µM (inactive) | 89.5 µM (inactive) | > 100 µM (inactive) | > 100 µM (inactive) | 62.4 µM (inactive) | > 100 µM (inactive) | > 100 µM (inactive) | > 100 µM (inactive) | > 100 µM (inactive) | > 100 µM (inactive) | 48.3 µM (inactive) | > 100 µM (inactive) | > 100 µM (inactive) | > 100 µM (inactive) | > 100 µM (inactive) | > 100 µM (inactive) | > 100 µM (inactive)
3 | COc1cccc2c1C(=O)c1c(O)c3c(c(O)c1C2=O)C[C@](O)(C(=O)CO)CC3OC1CC(N)C(OC2CCCCO2)C(C)O1 (some centres not stated) | 0.531 µM (active) | 1.4 µM (inactive) | 0.356 µM (active) | 0.621 µM (active) | 0.675 µM (active) | 0.019 µM (active) | 0.424 µM (active) | 0.0805 µM (active) | 1.24 µM (inactive) | 0.0658 µM (active) | 0.232 µM (active) | < 0.01 µM (active) | 0.293 µM (active) | 0.0598 µM (active) | 0.293 µM (active) | – | – | < 0.0375 µM (active)
4 | CN1Cc2ccccc2C2(COc3ccccc3C2=O)C1 (configuration not stated) | > 100 µM (inactive) | – | 98.2 µM (inactive) | > 100 µM (inactive) | 92.9 µM (inactive) | > 100 µM (inactive) | 28.7 µM (inactive) | 35.7 µM (inactive) | > 100 µM (inactive) | > 100 µM (inactive) | > 100 µM (inactive) | 40.8 µM (inactive) | > 100 µM (inactive) | > 100 µM (inactive) | > 100 µM (inactive) | > 100 µM (inactive) | – | 74.3 µM (inactive)
5 | CCC1=CC2CN3CCc4c([nH]c5ccccc45)C(C(=O)OC)(C2)C13 (configuration not stated) | 69.3 µM (inactive) | 53.3 µM (inactive) | 45.7 µM (inactive) | 48.3 µM (inactive) | 45.9 µM (inactive) | 48.6 µM (inactive) | 47.3 µM (inactive) | 11 µM (inactive) | 64.7 µM (inactive) | 7.26 µM (inactive) | 61.8 µM (inactive) | 39.8 µM (inactive) | 54.5 µM (inactive) | 41.9 µM (inactive) | 7.4 µM (inactive) | – | – | 50.5 µM (inactive)
6 | COC(=O)C(=O)C(C(=O)C(=O)Nc1ccc([N+](=O)[O-])cc1[N+](=O)[O-])c1nc2ccc([N+](=O)[O-])cc2nc1O (configuration not stated) | > 100 µM (inactive) | – | 50.1 µM (inactive) | > 100 µM (inactive) | > 100 µM (inactive) | > 100 µM (inactive) | > 100 µM (inactive) | > 100 µM (inactive) | > 100 µM (inactive) | > 100 µM (inactive) | > 100 µM (inactive) | > 100 µM (inactive) | > 100 µM (inactive) | > 100 µM (inactive) | > 100 µM (inactive) | > 100 µM (inactive) | > 100 µM (inactive) | > 100 µM (inactive)
7 | NC(=O)c1ncn(Cc2ccccc2)c1CNC(N)=S | > 100 µM (inactive) | > 100 µM (inactive) | – | > 100 µM (inactive) | > 100 µM (inactive) | > 100 µM (inactive) | > 100 µM (inactive) | > 100 µM (inactive) | > 100 µM (inactive) | > 100 µM (inactive) | > 100 µM (inactive) | > 100 µM (inactive) | > 100 µM (inactive) | > 100 µM (inactive) | > 100 µM (inactive) | > 100 µM (inactive) | > 100 µM (inactive) | > 100 µM (inactive)
8 | Fc1cccc(Cl)c1C1SCc2nc3ccccc3n21 (configuration not stated) | 22.9 µM (inactive) | – | 17.3 µM (inactive) | 31.7 µM (inactive) | 28.8 µM (inactive) | 22.6 µM (inactive) | 29.1 µM (inactive) | 36.6 µM (inactive) | 22.2 µM (inactive) | 27.2 µM (inactive) | 17.3 µM (inactive) | 18.8 µM (inactive) | 50.5 µM (inactive) | 37.2 µM (inactive) | 31.8 µM (inactive) | 57 µM (inactive) | 45.7 µM (inactive) | 25.3 µM (inactive)
9 | COc1ccc(Sc2ccccc2[N+](=O)[O-])cc1 | 39.1 µM (inactive) | 5.28 µM (inactive) | – | 8.36 µM (inactive) | 24.8 µM (inactive) | 4.98 µM (inactive) | 69.8 µM (inactive) | 13 µM (inactive) | 26.4 µM (inactive) | 10.4 µM (inactive) | 12.9 µM (inactive) | 16.1 µM (inactive) | 72.8 µM (inactive) | 3.65 µM (inactive) | > 100 µM (inactive) | 34.8 µM (inactive) | – | 22.8 µM (inactive)
10 | CC1=C2N3C[C@@H](n4c(=O)n(C)c(=O)n43)C23CCC1n1c(=O)n(C)c(=O)n13 | – | > 100 µM (inactive) | – | 7.85 µM (inactive) | 69.2 µM (inactive) | 38.6 µM (inactive) | > 100 µM (inactive) | > 100 µM (inactive) | > 100 µM (inactive) | – | 52.8 µM (inactive) | > 100 µM (inactive) | > 100 µM (inactive) | 21.9 µM (inactive) | > 100 µM (inactive) | > 100 µM (inactive) | 35.6 µM (inactive) | > 100 µM (inactive)
11 | COc1cc(OC)c2c(O)cc(CC(C)O)cc2c1 (configuration not stated) | > 100 µM (inactive) | > 100 µM (inactive) | > 100 µM (inactive) | > 100 µM (inactive) | > 100 µM (inactive) | > 100 µM (inactive) | > 100 µM (inactive) | – | > 100 µM (inactive) | 91.4 µM (inactive) | > 100 µM (inactive) | > 100 µM (inactive) | > 100 µM (inactive) | > 100 µM (inactive) | > 100 µM (inactive) | > 100 µM (inactive) | > 100 µM (inactive) | > 100 µM (inactive)
12 | O=C1CCCC/C1=C\c1ccc(Cl)c(Cl)c1 | 45.8 µM (inactive) | 19.1 µM (inactive) | – | 21.7 µM (inactive) | 23.2 µM (inactive) | 20 µM (inactive) | 25.2 µM (inactive) | – | 19.1 µM (inactive) | 16.6 µM (inactive) | 18 µM (inactive) | 18.1 µM (inactive) | 23.3 µM (inactive) | 21.6 µM (inactive) | – | 17 µM (inactive) | > 10 µM (inactive) | 21.3 µM (inactive)
